In ChEMBL document CHEMBL3217473, “Discovery of a structurally novel, drug-like and potent inhibitor of peptidylarginine deiminase” (Medchemcomm, 2013):
Active and inactive are the calls of the source. The calls are words filed in the database; no cut-off is given here.

What was measured:
[1] = tested on: HEK-293T; assay: Inhibition of thapsigargin-induced cell death in human HEK293T cells overexpressing human recombinant PAD3 assessed as increase in cell survival at 100 uM treated 15 mins prior to thapsigargin addition measured after 24 hrs drug treatment by methylene blue assay; format: functional, cell-based
[2] = tested on: NSC; assay: Inhibition of thapsigargin-induced cell death in human NSC assessed as increase in cell survival at >10 uM treated 15 mins prior to thapsigargin addition measured after 24 hrs drug treatment by methylene blue assay; format: functional, cell-based
[3] = tested on: NSC; assay: Inhibition of thapsigargin-induced cell death in human NSC assessed as cell survival at <=1 uM treated 15 mins prior to thapsigargin addition measured after 24 hrs drug treatment by methylene blue assay; format: functional, cell-based
[4] = molecular target: T1, Protein-arginine deiminase type-3 (Homo sapiens) (UniProt Q9ULW8); assay: Inhibition of human recombinant PAD3 expressed in HEK293T cells assessed as conversion of BAEE to sodium benzoyl-L-citrulline up to 1 mM by colorimetric analysis; format: cell-based; conditions: HEK-293T
T1 sequence (whole entry): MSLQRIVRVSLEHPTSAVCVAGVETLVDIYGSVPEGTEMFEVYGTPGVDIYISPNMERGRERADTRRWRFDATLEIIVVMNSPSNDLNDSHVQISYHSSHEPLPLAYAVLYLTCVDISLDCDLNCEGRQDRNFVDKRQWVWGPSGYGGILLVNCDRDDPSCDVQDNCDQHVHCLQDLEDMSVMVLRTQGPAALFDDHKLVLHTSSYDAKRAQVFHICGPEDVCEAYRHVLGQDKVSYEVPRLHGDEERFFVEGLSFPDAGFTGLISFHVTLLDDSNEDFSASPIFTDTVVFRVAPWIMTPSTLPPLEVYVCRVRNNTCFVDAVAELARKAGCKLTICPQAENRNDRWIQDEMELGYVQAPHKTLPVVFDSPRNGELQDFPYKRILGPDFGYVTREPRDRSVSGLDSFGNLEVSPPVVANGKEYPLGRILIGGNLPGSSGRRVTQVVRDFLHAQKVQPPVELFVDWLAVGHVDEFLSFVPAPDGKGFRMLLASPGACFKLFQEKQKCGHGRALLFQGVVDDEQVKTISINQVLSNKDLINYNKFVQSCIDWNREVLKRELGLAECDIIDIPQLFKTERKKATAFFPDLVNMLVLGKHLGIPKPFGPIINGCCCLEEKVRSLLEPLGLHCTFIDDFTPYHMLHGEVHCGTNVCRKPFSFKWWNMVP

[5] = tested on: NSC; assay: Inhibition of thapsigargin-induced cell death in human NSC assessed as increase in cell survival up to 1 mM treated 15 mins prior to thapsigargin addition measured after 24 hrs drug treatment by methylene blue assay; format: functional, cell-based
[6] = tested on: HEK-293T; assay: Inhibition of thapsigargin-induced cell death in human HEK293T cells overexpressing human recombinant PAD3 assessed as increase in cell survival at 10 uM treated 15 mins prior to thapsigargin addition measured after 24 hrs drug treatment by methylene blue assay; format: functional, cell-based
[7] = molecular target: T1, Protein-arginine deiminase type-3 (Homo sapiens); assay: Inhibition of human recombinant PAD3 expressed in HEK293T cells assessed as conversion of BAEE to sodium benzoyl-L-citrulline at 100 uM by colorimetric analysis; format: cell-based; conditions: HEK-293T
[8] = molecular target: T1, Protein-arginine deiminase type-3 (Homo sapiens); assay: Competitive reversible inhibition of human recombinant PAD3 expressed in HEK293T cells assessed as rate of citrullination of BAEE at 10 to 100 uM by Michaelis-Menten equation analysis using colorimetry; format: cell-based; conditions: HEK-293T
[9] = tested on: NSC; assay: Inhibition of thapsigargin-induced cell death in human NSC assessed as increase in cell survival at 100 nM treated 15 mins prior to thapsigargin addition measured after 24 hrs drug treatment by methylene blue assay; format: functional, cell-based
[10] = tested on: NSC; assay: Cytotoxicity against human NSC assessed as decrease in cell survival at 0.1 to 1000 uM after 24 hrs by methylene blue assay; format: cell-based

inhibition [4] | inhibition [7] | inhibition [8] | SMILES | inhibition [1] | inhibition [2] | inhibition [3] | inhibition [5] | inhibition [6] | inhibition [9] | Activity [10]
– | – | – | N=C(CCl)NCCC[C@H](NC(=O)c1ccccc1)C(N)=O | Active | Active | inactive | – | – | – | –
Active | Active | Active | O=C1CN=C(NCCc2c[nH]c3ccccc23)N1 | – | – | – | Active | Active | Active | Non-toxic
